Non-standard residues stand in square brackets, D forms with d. No end group written: not given here.
Experiments:
[1] = tested on: peptide-pulsed A24LCL cells; assay: IFN-gamma ELISPOT assay on CTLs induced with VANGL1 peptides; format: cell-based, human; details: CTLs from HLA-A*2402 positive donor after 3rd peptide stimulation, day 21; compared to the control wells
Text: (§1) Monocyte-derived dendritic cells (DCs) were used as antigen-presenting cells (APCs) to induce cytotoxic T lymphocyte (CTL) responses against peptides presented on human leukocyte antigen (HLA). DCs were generated in vitro as described elsewhere (Nakahara S et al., Cancer Res 2003 Jul. 15, 63(14): 4112-8). Specifically, peripheral blood mononuclear cells (PBMCs) isolated from a normal volunteer (HLA-A*2402 positive) by Ficoll-Plaque (Pharmacia) solution were separated by adherence to a plastic tissue culture dish (Becton Dickinson) so as to enrich them as the monocyte fraction. The monocyte-enriched population was cultured in the presence of 1,000 U/ml of granulocyte-macrophage colony-stimulating factor (GM-CSF) (R&D System) and 1,000 U/ml of interleukin (IL)-4 (R&D System) in AIM-V Medium (Invitrogen) containing 2% heat-inactivated autologous serum (AS). After 7 days of culture, the cytokine-induced DCs were pulsed with 20 micro-g/ml of each of the synthesized peptides in the presence of 3 micro-g/ml of beta 2-microglobulin for 3 hrs at 37 degrees C. in AIM-V Medium. The generated cells appeared to express DC-associated molecules, such as CD80, CD83, CD86 and HLA class II, on their cell surfaces (data not shown). These peptide-pulsed DCs were then inactivated by X-irradiation (20 Gy) and mixed at a 1:20 ratio with autologous CD8+ T cells, obtained by positive selection with CD8 Positive Isolation Kit (Dynal). These cultures were set up in 48-well plates (Corning); each well contained 1.5×10^4 peptide-pulsed DCs, 3×10^5 CD8+ T cells and 10 ng/ml of IL-7 (R&D System) in 0.5 ml of AIM-V/2% AS medium. Three days later, these cultures were supplemented with IL-2 (CHIRON) to a final concentration of 20 IU/ml. On days 7 and 14, the T cells were further stimulated with the autologous peptide-pulsed DCs. The DCs were prepared each time by the same way described above. CTL was tested against peptide-pulsed A24LCL cells after the 3rd round of peptide stimulation on day 21 (Tanaka H et al., Br J Cancer 2001 Jan. 5, 84(1): 94-9; Umano Y et al., Br J Cancer 2001 Apr. 20, 84(8): 1052-7; Uchida N et al., Clin Cancer Res 2004 Dec. 15, 10(24): 8577-86; Suda T et al., Cancer Sci 2006 May, 97(5): 411-9; Watanabe T et al., Cancer Sci 2005 August, 96(8): 498-506).
(§2) To examine specific CTL activity, interferon (IFN)-gamma enzyme-linked immunospot (ELISPOT) assay and IFN-gamma enzyme-linked immunosorbent assay (ELISA) were performed. Specifically, peptide-pulsed A24LCL (1×10^4/well) was prepared as stimulator cells. Cultured cells in 48 wells were used as responder cells. IFN-gamma ELISPOT assay and IFN-gamma ELISA assay were performed under manufacture procedure.

[2] = tested on: peptide-pulsed A24LCL cells; assay: IFN-gamma ELISA assay of established CTL lines; format: cell-based, human; details: target cells pulsed with corresponding peptide vs target cells without peptide pulse
Text: as §1
CTLs were expanded in culture using the method similar to the one described by Riddell et al. (Walter E A et al., N Engl J Med 1995 Oct. 19, 333(16): 1038-44; Riddell S R et al., Nat Med 1996 February, 2(2): 216-23). A total of 5×10^4 CTLs were suspended in 25 ml of AIM-V/5% AS medium with 2 kinds of human B-lymphoblastoid cell lines, inactivated by Mitomycin C, in the presence of 40 ng/ml of anti-CD3 monoclonal antibody (Pharmingen). One day after initiating the cultures, 120 IU/ml of IL-2 were added to the cultures. The cultures were fed with fresh AIM-V/5% AS medium containing 30 IU/ml of IL-2 on days 5, 8 and 11 (Tanaka H et al., Br J Cancer 2001 Jan. 5, 84(1): 94-9; Umano Y et al., Br J Cancer 2001 Apr. 20, 84(8): 1052-7; Uchida N et al., Clin Cancer Res 2004 Dec. 15, 10(24): 8577-86; Suda T et al., Cancer Sci 2006 May, 97(5): 411-9; Watanabe T et al., Cancer Sci 2005 August, 96(8): 498-506).
as §2

[3] = tested on: target cells pulsed peptide; assay: IFN-gamma ELISA assay of CTL clones established by limiting dilution; format: cell-based, human; details: CTL clones against target cells pulsed peptide
Description: The dilutions were made to have 0.3, 1, and 3 CTLs/well in 96 round-bottomed micro titer plate (Nalge Nunc International). CTLs were cultured with 1×10^4 cells/well of 2 kinds of human B-lymphoblastoid cell lines, 30 ng/ml of anti-CD3 antibody, and 125 U/ml of IL-2 in a total of […] of AIM-V Medium containing 5% AS. 50 micro-Dwell of IL-2 were added to the medium 10 days later so to reach a final concentration of 125 U/ml IL-2. CTL activity was tested on the 14th day, and CTL clones were expanded using the same method as described above (Uchida N et al., Clin Cancer Res 2004 Dec. 15, 10(24): 8577-86; Suda T et al., Cancer Sci 2006 May, 97(5): 411-9; Watanabe T et al., Cancer Sci 2005 August, 96(8): 498-506).
as §2

[4] = tested on: COS7 cells transfected with VANGL1 and HLA-A*2402; assay: Specific CTL activity against target cells exogenously expressing VANGL1 and HLA-A*2402; format: cell-based, African green monkey
Text: The cDNA encoding an open reading frame of target genes or HLA-A*2402 was amplified by PCR. The PCR-amplified product was cloned into pCAGGS vector. The plasmids were transfected into COS7, which is the target genes and HLA-A24-negative cell line, using lipofectamine 2000 (Invitrogen) according to the manufacturer's recommended procedures. After 2 days from transfection, the transfected cells were harvested with versene (Invitrogen) and used as the target cells (5×10^4 cells/well) for CTL activity assay.
The established CTL lines raised against these peptides were examined for their ability to recognize target cells that endogenously express VANGL1 and HLA-A*2402 molecule. Specific CTL activity against COS7 cells which transfected with both the full length of VANGL1 and HLA-A*2402 molecule gene (a specific model for the target cells that exogenously express VANGL1 and HLA-A*2402 gene) was tested using the CTL lines raised by corresponding peptide as the effecter cells. COS7 cells transfected with either full length of VANGL1 genes or HLA-A* 2402 were prepared as controls.

Substance	Peptide specific CTL activity: IFN-gamma production (ELISPOT) [1]	CTL activity of CTL lines: IFN-gamma production (ELISA) [2]	IFN-gamma production from CTL clones (ELISA) [3]	Specific CTL activity ([4]; COS7 cells expressing both VANGL1 and HLA-A*2402)	Specific CTL activity ([4]; controls: COS7 cells transfected with either full length VANGL1 or HLA-A*2402)
DFTIyNPNLL (DFTI[code y]NPNLL) [SEQ ID NO: 26]	potent IFN-gamma production	–	–	–	–
HYLAiVLLEL (HYLA[code i]VLLEL) [SEQ ID NO: 18]	potent IFN-gamma production	potent IFN-gamma production	Potent IFN-gamma productions	–	–
LFIHyLAIVL (LFIH[code y]LAIVL) [SEQ ID NO: 24]	potent IFN-gamma production	potent IFN-gamma production	Potent IFN-gamma productions	–	–
LFISmAFKLL (LFIS[code m]AFKLL) [SEQ ID NO: 25]	potent IFN-gamma production	potent IFN-gamma production	–	–	–
LFVVSYWLF [SEQ ID NO: 12]	potent IFN-gamma production	potent IFN-gamma production	–	–	–
NYQGiVQYAV (NYQG[code i]VQYAV) [SEQ ID NO: 32]	potent IFN-gamma production	potent IFN-gamma production	–	–	–
RYLGLTVAS [SEQ ID NO: 11]	potent IFN-gamma production	potent IFN-gamma production	–	–	–
RYLSAGPTL [SEQ ID NO: 1]	potent IFN-gamma production	potent IFN-gamma production	–	potent CTL activity	no significant specific CTL activity
VELTpIAFIL [SEQ ID NO: 22]	potent IFN-gamma production	potent IFN-gamma production	Potent IFN-gamma productions	–	–
VFRALLLVL [SEQ ID NO: 9]	potent IFN-gamma production	potent IFN-gamma production	–	–	–
VFVFRALLL [SEQ ID NO: 8]	potent IFN-gamma production	potent IFN-gamma production	Potent IFN-gamma productions	–	–
